Measurements reported in patent US11066369B2, “N-(pyridin-2-yl)pyridine-sulfonamide derivatives and their use in the treatment of disease” (Novartis AG, priority 2016, dated 2021).

Key:
[1] = biological target: T1, horseradish peroxidase (HRP) tagged delF508-CFTR (Homo sapiens, UniProt P13569, DEL508-508); test: Measurement of delF508-CFTR-HRP surface expression in CFBE41o- cells; type: cell-based; settings: delF508-CFTR-HRP surface expression, CFBE41o- cells; for Emax: read-out: DelF508-CFTR-HRP Amax %; for EC50: read-out: DelF508-CFTR-HRP EC50;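 on DelF508-CFTR-HRP Amax %: percent efficacy relative to reference corrector lumacaftor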
T1 construct: expressed in transfected cells
In short: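 CFBE41o- bronchial epithelial cells stably expressing delF508-CFTR with HRP in the fourth extracellular loop; expression induced 48h with 500 ng/mL doxycycline, then compounds added (top 10 μM, 10-point 3-fold series, ≤0.5% DMSO) for 24h at 37° C. Surface HRP measured by luminescence with cell-impermeant substrate; EC50 from logistic fit of triplicates, plate-normalized to lowest concentration; efficacy also relative to a reference corrector.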

delF508-CFTR = biological target: T2, delF508-CFTR (Homo sapiens, UniProt P13569, DEL508-508); test: Measurement of delF508-CFTR functional activity in primary human bronchial epithelial cells (HBECs) using Multi-Transepithelial Clamp Circuit (MTECC-24) assay; type: cell-based; settings: primary CF HBECs; for MTECC24 CFHBEC- Amax %: test compound added 24h before assay plus potentiator, relative to reference combination (2 μM corrector + 0.5 μM potentiator); for EC50: test compound added 24h before assay, in the presence of potentiator, mean of at least two replicates, read-out: MTECC24 CFHBEC- EC50
T2 construct: functional activity of the CFTR channel (Chloride ion transport) in patient derived primary human bronchial epithelial cells; host or cells: patient-derived primary human bronchial epithelial cells (delF508-CFTR)
In short: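 Patient-derived primary delF508-CFTR HBECs, differentiated at air-liquid interface ~2 weeks, treated basolaterally with compound for 24 h, then apical and basolateral compound in HEPES pH 7.4 assay medium. Equivalent short-circuit current (Ieq) recorded on MTECC-24 with sequential amiloride, forskolin, potentiator and INH-172; normalized to 0.1% DMSO, EC50 from curve fit.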

T1 sequence (P13569 with tags, fused parts or gaps DEL508-508): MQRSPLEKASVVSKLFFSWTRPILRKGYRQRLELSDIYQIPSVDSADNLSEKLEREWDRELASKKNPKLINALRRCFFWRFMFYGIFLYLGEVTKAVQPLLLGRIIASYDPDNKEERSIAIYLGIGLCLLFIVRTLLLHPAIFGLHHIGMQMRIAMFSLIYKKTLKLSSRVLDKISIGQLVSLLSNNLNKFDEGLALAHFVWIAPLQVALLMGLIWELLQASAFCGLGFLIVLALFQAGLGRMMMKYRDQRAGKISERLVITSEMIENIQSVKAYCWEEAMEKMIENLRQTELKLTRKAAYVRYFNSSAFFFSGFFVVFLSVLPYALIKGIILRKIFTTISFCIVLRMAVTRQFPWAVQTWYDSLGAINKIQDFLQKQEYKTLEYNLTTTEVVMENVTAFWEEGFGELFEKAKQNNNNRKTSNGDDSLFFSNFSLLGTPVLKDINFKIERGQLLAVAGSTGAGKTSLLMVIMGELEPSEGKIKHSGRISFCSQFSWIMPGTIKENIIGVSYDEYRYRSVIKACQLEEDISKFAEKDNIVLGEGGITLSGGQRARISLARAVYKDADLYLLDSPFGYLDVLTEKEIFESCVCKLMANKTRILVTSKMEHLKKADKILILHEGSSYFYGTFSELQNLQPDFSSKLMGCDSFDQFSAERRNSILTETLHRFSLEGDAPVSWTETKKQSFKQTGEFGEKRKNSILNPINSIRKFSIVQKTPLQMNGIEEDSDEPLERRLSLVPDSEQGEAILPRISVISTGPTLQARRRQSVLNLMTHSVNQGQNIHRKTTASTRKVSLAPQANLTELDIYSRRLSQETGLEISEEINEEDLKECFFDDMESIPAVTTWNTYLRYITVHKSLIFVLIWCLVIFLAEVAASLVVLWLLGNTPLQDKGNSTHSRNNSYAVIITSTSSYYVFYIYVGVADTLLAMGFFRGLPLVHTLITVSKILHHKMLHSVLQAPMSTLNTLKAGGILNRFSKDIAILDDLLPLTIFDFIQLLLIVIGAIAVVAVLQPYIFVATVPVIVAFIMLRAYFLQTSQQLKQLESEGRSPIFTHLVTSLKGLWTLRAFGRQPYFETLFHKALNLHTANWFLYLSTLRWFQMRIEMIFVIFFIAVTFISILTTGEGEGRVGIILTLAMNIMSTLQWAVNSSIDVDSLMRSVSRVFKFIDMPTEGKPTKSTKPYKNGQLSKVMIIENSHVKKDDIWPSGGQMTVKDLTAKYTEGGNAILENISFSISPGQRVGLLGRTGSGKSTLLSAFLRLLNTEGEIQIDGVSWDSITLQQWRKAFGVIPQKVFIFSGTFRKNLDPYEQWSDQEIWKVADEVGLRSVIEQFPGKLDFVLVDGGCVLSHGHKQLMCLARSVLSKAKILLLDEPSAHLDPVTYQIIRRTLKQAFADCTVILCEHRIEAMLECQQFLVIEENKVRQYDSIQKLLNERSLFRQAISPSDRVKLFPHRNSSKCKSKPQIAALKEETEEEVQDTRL
T2 sequence (P13569 with tags, fused parts or gaps DEL508-508): as above

| Structure (SMILES) | Emax [1] [%] | EC50 [1] [nM] | MTECC24 CFHBEC- Amax % (delF508-CFTR) [%] | EC50 (delF508-CFTR) [nM] |
| --- | --- | --- | --- | --- |
| CCOC(=O)C1(C)CCN(c2cccc(S(=O)(=O)Nc3ccc(C(F)(F)F)c(-c4cc(F)ccc4C)n3)n2)CC1 [Example 251, ethyl 1-(6-(N-(6-(5-fluoro-2-methylphenyl)-5-(trifluoromethyl)pyridin-2-yl)sulfamoyl)pyridin-2-yl)-4-methylpiperidine-4-carboxylate] | 894 | 1450 | 61.2 | 3.2 |
| Cc1c(F)cccc1-c1nc(NS(=O)(=O)c2cccc(N3CCC(C)(C(=O)O)CC3)n2)ccc1Cl [Example 253, 1-(6-(N-(5-chloro-6-(3-fluoro-2-methylphenyl)pyridin-2-yl)sulfamoyl)pyridin-2-yl)-4-methylpiperidine-4-carboxylic Acid] | 203 | 2290 | 67.1 | 27.8 |
| CCOC(=O)C1(C)CCN(c2cccc(S(=O)(=O)Nc3ccc(Cl)c(-c4ccccc4C)n3)n2)CC1 [Example 254, ethyl 1-(6-(N-(5-chloro-6-(o-tolyl)pyridin-2-yl)sulfamoyl)pyridin-2-yl)-4-methylpiperidine-4-carboxylate] | 620 | 2590 | 62.2 | 3.8 |
| Cc1ccccc1-c1nc(NS(=O)(=O)c2cccc(N3CCC(C)(C(=O)O)CC3)n2)ccc1Cl [Example 255, 1-(6-(N-(5-chloro-6-(o-tolyl)pyridin-2-yl)sulfamoyl)pyridin-2-yl)-4-methylpiperidine-4-carboxylic Acid] | 222 | 3160 | 55.1 | 10.4 |
| CCOC(=O)C1(C)CCN(c2cccc(S(=O)(=O)Nc3ccc(Cl)c(-c4cc(F)ccc4C)n3)n2)CC1 [Example 256, ethyl 1-(6-(N-(5-chloro-6-(5-fluoro-2-methylphenyl)pyridin-2-yl)sulfamoyl)pyridin-2-yl)-4-methylpiperidine-4-carboxylate] | 662 | 2780 | 52.6 | 2.9 |
| Cc1ccc(F)cc1-c1nc(NS(=O)(=O)c2cccc(N3CCC(C)(C(=O)O)CC3)n2)ccc1Cl [Example 257, 1-(6-{[5-chloro-6-(5-fluoro-2-methylphenyl)pyridin-2-yl]sulfamoyl}pyridin-2-yl)-4-methylpiperidine-4-carboxylic Acid] | 198 | 1350 | 63.0 | 21.8 |
| CCOC(=O)C1(C)CCN(c2cccc(S(=O)(=O)Nc3ccc(C(F)(F)F)c(-c4ccccc4C)n3)n2)CC1 [Example 259, ethyl 4-methyl-1-(6-{[6-(2-methylphenyl)-5-(trifluoromethyl)pyridin-2-yl]sulfamoyl}pyridin-2-yl)piperidine-4-carboxylate] | 801 | 1570 | 66.7 | 1.9 |
| Cc1ccc(F)cc1-c1nc(NS(=O)(=O)c2cccc(N3CCC(C)(C(=O)O)CC3)n2)ccc1C(F)(F)F [Example 262, 1-(6-{[6-(5-fluoro-2-methylphenyl)-5-(trifluoromethyl)pyridin-2-yl]sulfamoyl}pyridin-2-yl)-4-methylpiperidine-4-carboxylic Acid] | 628 | 2290 | 81.2 | 14 |
| Cc1c(F)cccc1-c1nc(NS(=O)(=O)c2cccc(N3CCC(C)(C(=O)O)CC3)n2)ccc1C(F)(F)F [Example 263, 1-(6-(N-(6-(3-fluoro-2-methylphenyl)-5-(trifluoromethyl)pyridin-2-yl)sulfamoyl)pyridin-2-yl)-4-methylpiperidine-4-carboxylic Acid] | 481 | 2870 | 54.4 | 8.3 |
| Cc1ccccc1-c1nc(NS(=O)(=O)c2cccc(N3CCC(C)(C(=O)O)CC3)n2)ccc1C(F)(F)F [Example 264, 4-methyl-1-(6-(N-(6-(o-tolyl)-5-(trifluoromethyl)pyridin-2-yl)sulfamoyl)pyridin-2-yl)piperidine-4-carboxylic Acid] | 448 | 2600 | 67.2 | 11.7 |
| Cc1cccc(C)c1-c1nc(NS(=O)(=O)c2cccc(N3CCC(C)(C(=O)O)CC3)n2)ccc1C(F)(F)F [Example 265, 1-(6-{[6-(2,6-dimethylphenyl)-5-(trifluoromethyl)pyridin-2-yl]sulfamoyl}pyridin-2-yl)-4-methylpiperidine-4-carboxylic Acid] | 879 | 1830 | 53.1 | 13.4 |
| COC(=O)C1(N)CCN(c2cccc(S(=O)(=O)Nc3ccc(Cl)c(-c4c(C)cccc4C)n3)n2)CC1 [Example 270, methyl 4-amino-1-(6-{[5-chloro-6-(2,6-dimethylphenyl)pyridin-2-yl]sulfamoyl}pyridin-2-yl)piperidine-4-carboxylate] | 561 | 1940 | 69.5 | 95 |
| Cc1cccc(C)c1-c1nc(NS(=O)(=O)c2cccc(NC3CCOCC3)n2)ccc1Cl [Example 271, N-[5-chloro-6-(2,6-dimethylphenyl)pyridin-2-yl]-6-[(oxan-4-yl)amino]pyridine-2-sulfonamide] | 837 | 1080 | 66.6 | 8.8 |
| Cc1ccc(F)cc1-c1nc(NS(=O)(=O)c2cccc(N[C@@H]3CCOC[C@@H]3O)n2)ccc1Cl [Example 272, N-[5-chloro-6-(5-fluoro-2-methylphenyl)pyridin-2-yl]-6-{[(3R,4R)-3-hydroxyoxan-4-yl]amino}pyridine-2-sulfonamide] | 806 | 2310 | 66.4 | 10.5 |
| Cc1ccc(F)cc1-c1nc(NS(=O)(=O)c2cccc(N[C@@H]3CCOC[C@H]3O)n2)ccc1Cl [Example 273, N-[5-chloro-6-(5-fluoro-2-methylphenyl)pyridin-2-yl]-6-{[(3S,4R)-3-hydroxyoxan-4-yl]amino}pyridine-2-sulfonamide] |  | 1380 | 70.9 | 6.4 |
| Cc1ccccc1-c1nc(NS(=O)(=O)c2cccc(N[C@@H]3CCOC[C@H]3O)n2)ccc1C(F)(F)F [Example 274, 6-(((3S,4R)-3-hydroxytetrahydro-2H-pyran-4-yl)amino)-N-(6-(o-tolyl)-5-(trifluoromethyl)pyridin-2-yl)pyridine-2-sulfonamide] | 779 | 1870 | 77.0 | 3.3 |
| Cc1ccc(F)cc1-c1nc(NS(=O)(=O)c2cccc(N[C@@H]3COCC[C@H]3O)n2)ccc1Cl [Example 278, N-[5-chloro-6-(5-fluoro-2-methylphenyl)pyridin-2-yl]-6-{[(3R,4R)-4-hydroxyoxan-3-yl]amino}pyridine-2-sulfonamide] |  | 1100 | 73.4 | 5.4 |
| Cc1ccccc1-c1nc(NS(=O)(=O)c2cccc(N[C@@H]3COCC[C@H]3O)n2)ccc1C(F)(F)F [Example 279, 6-{[(3R,4R)-4-hydroxyoxan-3-yl]amino}-N-[6-(2-methylphenyl)-5-(trifluoromethyl)pyridin-2-yl]pyridine-2-sulfonamide] |  | 1190 | 93.7 | 3.5 |
| Cc1ccccc1-c1nc(NS(=O)(=O)c2cccc(N[C@H]3C[C@@H](O)C3)n2)ccc1C(F)(F)F [Example 283, N-[6-(2-methylphenyl)-5-(trifluoromethyl)pyridin-2-yl]-6-{[(1s,3s)-3-hydroxycyclobutyl]amino}pyridine-2-sulfonamide] |  | 1590 | 84.0 | 0.8 |
| Cc1ccccc1-c1nc(NS(=O)(=O)c2cccc(N[C@H]3C[C@H](O)C3)n2)ccc1C(F)(F)F [Example 284, N-[6-(2-methylphenyl)-5-(trifluoromethyl)pyridin-2-yl]-6-{[(1r,3r)-3-hydroxycyclobutyl]amino}pyridine-2-sulfonamide] | 493 | 2280 | 85.2 | 0.9 |
| Cc1cccc(C)c1-c1nc(NS(=O)(=O)c2cccc(N[C@H]3C[C@@](C)(O)C3)n2)ccc1Cl [Example 285, N-[5-chloro-6-(2,6-dimethylphenyl)pyridin-2-yl]-6-{[(1r,3s)-3-hydroxy-3-methylcyclobutyl]amino}pyridine-2-sulfonamide] |  | 1240 | 74.1 | 18.9 |
| Cc1cccc(C)c1-c1nc(NS(=O)(=O)c2cccc(N[C@H]3C[C@@H](O)C3)n2)ccc1Cl [Example 286, N-[5-chloro-6-(2,6-dimethylphenyl)pyridin-2-yl]-6-{[(1s,3s)-3-hydroxycyclobutyl]amino}pyridine-2-sulfonamide] | 847 | 1490 | 153.1 | 23.9 |
